Assay [1] concerns A2780. In words: Cytotoxicity against human A2780 cells assessed as cell viability after 96 hrs by SRB assay. It counts as functional, cell-based. The following applies: A2780, 96 h.
Assay [2] can be described thus: Cytotoxicity against human 518A2 cells assessed as cell viability after 96 hrs by SRB assay. The assay is classed as functional, cell-based. The following applies: 518A2, 96 h. In general terms: Sulforhodamine B stains cellular protein and so reports cell mass.
In assay [3] the test system is MCF7. In words: Cytotoxicity against human MCF7 cells assessed as cell viability after 96 hrs by SRB assay. The assay is classed as functional, cell-based. The following applies: MCF7, 96 h.
In assay [4] the test system is 8505C. In words: Cytotoxicity against human 8505C cells assessed as cell viability after 96 hrs by SRB assay. The assay is classed as functional, cell-based.
Assay [5] concerns A549. Description: Cytotoxicity against human A549 cells assessed as cell viability after 96 hrs by SRB assay. The assay is classed as functional, cell-based. The following applies: A549, 96 h.
In assay [6] the test system is A549. Description: Cell cycle arrest in human A549 cells assessed as accumulation at G0/G1 phase at IC80 by propidium iodide staining-based flow cytometric analysis. The assay is classed as functional. The following applies: TDE = time-dependent effect. A general note: In flow cytometry, cells or beads pass a laser one at a time.
Assay [7] concerns A549. Description: Induction of apoptosis in human A549 cells assessed as early apoptosis and secondary necrosis at IC80 after 48 hrs by annexin V-FITC staining-based flow cytometric analysis relative to control. The assay is classed as functional.
Assay [8] concerns A549. Description: Cell cycle arrest in human A549 cells assessed as accumulation at subG1 phase at IC80 after 48 hrs by propidium iodide staining-based flow cytometric analysis (3.23 +/- 0.25%). The assay is classed as functional.
Assay [9] deals with A549. In words: Induction of apoptosis in human A549 cells assessed as DNA fragmentation at IC80 after 24 hrs by acridine orange/ethidium bromide staining-based fluorescence microscopic analysis. The assay is classed as functional, cell-based.
Assay [10] deals with A549. In words: Cell cycle arrest in human A549 cells assessed as accumulation at S phase at IC80 by propidium iodide staining-based flow cytometric analysis. The assay is classed as functional. The following applies: TDE = time-dependent effect.
Assay [11] deals with A549. Description: Induction of apoptosis in human A549 cells assessed as membrane blebbing at IC80 after 24 hrs by acridine orange/ethidium bromide staining-based fluorescence microscopic analysis. It counts as functional, cell-based.
Assay [12] deals with A549. In words: Cell cycle arrest in human A549 cells assessed as accumulation at G2/M phase at IC80 after 24 hrs by propidium iodide staining-based flow cytometric analysis (24.9 +/- 1.46%). The assay is classed as functional.
Assay [13] has as its system A549. Description: Cell cycle arrest in human A549 cells assessed as accumulation at G2/M phase at IC80 by propidium iodide staining-based flow cytometric analysis. It counts as functional. The following applies: TDE = time-dependent effect.
The subject of assay [14] is A549. In words: Cell cycle arrest in human A549 cells assessed as accumulation at subG1 phase at IC80 after 24 hrs by propidium iodide staining-based flow cytometric analysis (2.73 +/- 0.49%). The assay is classed as functional.
The subject of assay [15] is A549. Description: Cell cycle arrest in human A549 cells assessed as accumulation at S phase at IC80 after 48 hrs by propidium iodide staining-based flow cytometric analysis (19.1 +/- 1.05%). The assay is classed as functional.
For assay [16], the system named is A549. In words: Cell cycle arrest in human A549 cells assessed as accumulation at G0/G1 phase at IC80 after 24 hrs by propidium iodide staining-based flow cytometric analysis (49.5 +/- 2.51%). It counts as functional.
In assay [17] the test system is A549. Description: Cell cycle arrest in human A549 cells assessed as accumulation at subG1 phase at IC80 by propidium iodide staining-based flow cytometric analysis. It counts as functional. As to conditions: TDE = time-dependent effect.
Assay [18] relates to A549. In words: Cell cycle arrest in human A549 cells assessed as accumulation at S phase at IC80 after 24 hrs by propidium iodide staining-based flow cytometric analysis (20.2 +/- 0.81%). The assay is classed as functional.
Assay [19] has as its system A549. Description: Induction of apoptosis in human A549 cells assessed as apoptotic bodies at IC80 after 24 hrs by acridine orange/ethidium bromide staining-based fluorescence microscopic analysis. It counts as functional, cell-based.
Assay [20] concerns A549. Description: Cell cycle arrest in human A549 cells assessed as accumulation at G0/G1 phase at IC80 after 48 hrs by propidium iodide staining-based flow cytometric analysis (48.5 +/- 1.82%). The assay is classed as functional.
The test system of assay [21] is A549. Description: Induction of apoptosis in human A549 cells assessed as chromatin condensation at IC80 after 24 hrs by acridine orange/ethidium bromide staining-based fluorescence microscopic analysis. It counts as functional, cell-based.
Assay [22] relates to A549. Description: Induction of apoptosis in human A549 cells assessed as early apoptosis and secondary necrosis at IC80 after 24 hrs by annexin V-FITC staining-based flow cytometric analysis relative to control. It counts as functional.
The test system of assay [23] is A549. Description: Cell cycle arrest in human A549 cells assessed as accumulation at G2/M phase at IC80 after 48 hrs by propidium iodide staining-based flow cytometric analysis (26 +/- 1.1%). The assay is classed as functional.
Assay [24] is described as follows: Cytotoxicity against human CCD-18Co cells assessed as cell viability after 96 hrs by SRB assay. It counts as cell-based.
Assay [25] concerns MCF7. Description: Selectivity index, ratio of IC50 for human CCD-18Co cells to IC50 for human MCF7 cells. It counts as functional.
Assay [26] deals with A2780. Description: Selectivity index, ratio of IC50 for human CCD-18Co cells to IC50 for human A2780 cells. It counts as functional.
A short description of assay [27]: Selectivity index, ratio of IC50 for human CCD-18Co cells to IC50 for human 518A2 cells. The assay is classed as functional.

Calls of active or inactive are those of the source. No cut-off for these calls is given here.

Regarding `CC(=O)[C@@H]1CC[C@]2(C(=O)O)CC[C@]3(C)[C@H](CC[C@@H]4[C@@]5(C)CCC(=O)C(C)(C)[C@@H]5CC[C@]43C)[C@@H]12`, the IC50 (commonly the point on the concentration scale where inhibition reaches its midpoint) in assay [1] was 16.1 µM; in assay [2], 43.5 µM; in assay [3] it was 47.1 µM; in assay [4], 64.1 µM; in assay [5] it was 59.1 µM.

For the compound `C=C(C)[C@@H]1CC[C@]2(C(=O)OCc3ccccc3)CC[C@]3(C)[C@H](CC[C@@H]4[C@@]5(C)CC/C(=N\Nc6ccc([N+](=O)[O-])cc6[N+](=O)[O-])C(C)(C)[C@@H]5CC[C@]43C)[C@@H]12`, the IC50 in [1] was 66.7 µM; in assay [2], > 100 µM; in assay [3] it was > 100 µM; in assay [4], > 100 µM; in assay [5] it was > 100 µM.

`C=C(C)[C@@H]1CC[C@]2(C(=O)OC)CC[C@]3(C)[C@H](CC[C@@H]4[C@@]5(C)CC[C@H](O)C(C)(C)[C@@H]5CC[C@]43C)[C@@H]12` [METHYL BETULINATE]: the IC50 in assay [1] turned out to be 16.3 µM; in assay [2], 16.9 µM; in assay [3], 16.9 µM; in assay [4] it was 17.2 µM; in assay [5], 17.2 µM.

`C[C@@H](C=O)[C@@H]1CC[C@]2(C(=O)O)CC[C@]3(C)[C@H](CC[C@@H]4[C@@]5(C)CCC(O)C(C)(C)[C@@H]5CC[C@]43C)[C@@H]12` (stereo partly specified): the IC50 in [1] worked out at 50.3 µM; in assay [2], 52.9 µM; in assay [3], 44.4 µM; in [4], 55.2 µM; in [5], 46.9 µM.

In the case of `C=C(C)[C@@H]1CC[C@]2(C(=O)O)CC[C@]3(C)[C@H](CC[C@@H]4[C@@]5(C)CCC(=O)C(C)(C)[C@@H]5CC[C@]43C)[C@@H]12` [BETUNOLIC ACID], the IC50 in [1] was found to be 5.97 µM; in assay [2] it was 12.9 µM; in [4] it was 14 µM; in assay [5], 10.4 µM.

In the case of `C[C@H](C=O)[C@@H]1CC[C@]2(C(=O)O)CC[C@]3(C)[C@H](CC[C@@H]4[C@@]5(C)CC/C(=N\Nc6ccc([N+](=O)[O-])cc6[N+](=O)[O-])C(C)(C)[C@@H]5CC[C@]43C)[C@@H]12`, the IC50 in [1] was 1.81 µM; in [2] it was 1.76 µM; in assay [3], 2.41 µM; in assay [4], 2.17 µM; in [5], 2 µM.

Consider `C=C(C)[C@@H]1CC[C@]2(C(=O)OC)CC[C@]3(C)[C@H](CC[C@@H]4[C@@]5(C)CCC(=O)C(C)(C)[C@@H]5CC[C@]43C)[C@@H]12` [METHYL BETULONATE], for which the IC50 is 36.2 µM in assay [1]; 68 µM in assay [2]; 98.1 µM in [3]; > 100 µM in [4]; > 100 µM in [5].

Take `CC(=O)[C@@H]1CC[C@]2(C(=O)O)CC[C@]3(C)[C@H](CC[C@@H]4[C@@]5(C)CC[C@H](O)C(C)(C)[C@@H]5CC[C@]43C)[C@@H]12` [PLATANIC ACID]: the IC50 came to 68 µM in assay [1]; 97.5 µM in assay [2]; 63.2 µM in assay [3]; 93.6 µM in [4]; 75.4 µM in [5].

As to `C=C(C)[C@@H]1CC[C@]2(C(=O)O)CC[C@]3(C)[C@H](CC[C@@H]4[C@@]5(C)CC[C@H](O)C(C)(C)[C@@H]5CC[C@]43C)[C@@H]12` [BETULINIC ACID], the Activity result in assay [6] was “tde”; in assay [7], >50%; in [8], 98.5%; in assay [10], “tde”; in [12] it was 20.1%; in [13] it was “tde”. Besides, the Activity was 18.8% in assay [14]; 0.33% in [15]; 36.7% in assay [16]; “tde” in assay [17]; 20.1% in [18]; 0.96% in [20]. Moreover, the Activity in assay [22] stood at 32%; in assay [23] it was 0.17%. In addition, the IC50 in assay [1] came to 8.75 µM; in assay [2] it was 14.8 µM; in assay [3], 14 µM; in assay [4], 12.6 µM; in assay [5] it was 13.3 µM; in assay [24], 43.6 µM. For the same compound, the result in assay [9], in assay [11], in [19] and in [21] was Active.

In the case of `C=C(C)[C@@H]1CC[C@]2(C(=O)OC)CC[C@]3(C)[C@H](CC[C@@H]4[C@@]5(C)CC/C(=N\Nc6ccc([N+](=O)[O-])cc6[N+](=O)[O-])C(C)(C)[C@@H]5CC[C@]43C)[C@@H]12`, the IC50 in [1], in assay [2], in assay [3], in [4] and in [5] was > 100 µM in each case.

As to `C/C(=N/O)[C@@H]1CC[C@]2(C(=O)O)CC[C@]3(C)[C@H](CC[C@@H]4[C@@]5(C)CC[C@H](O)C(C)(C)[C@@H]5CC[C@]43C)[C@@H]12`, the IC50 in assay [1] was 54.4 µM; in assay [2], 63.2 µM; in assay [3] it was 52.2 µM; in assay [4] it was 55.9 µM; in assay [5], 53.7 µM.

For `C/C(=N\Nc1ccc([N+](=O)[O-])cc1[N+](=O)[O-])[C@@H]1CC[C@]2(C(=O)O)CC[C@]3(C)[C@H](CC[C@@H]4[C@@]5(C)CC/C(=N\Nc6ccc([N+](=O)[O-])cc6[N+](=O)[O-])C(C)(C)[C@@H]5CC[C@]43C)[C@@H]12`, the IC50 in [1] was 53.8 µM; in assay [2], > 100 µM; in [3] it was 60.2 µM; in [4], > 100 µM; in [5], > 100 µM.

For the compound `CC(=O)[C@@H]1CC[C@]2(C(=O)O)CC[C@]3(C)[C@H](CC[C@@H]4[C@@]5(C)CC/C(=N\Nc6ccc([N+](=O)[O-])cc6[N+](=O)[O-])C(C)(C)[C@@H]5CC[C@]43C)[C@@H]12`, the IC50 in assay [1] came out at 9.1 µM; in [2] it was 14.6 µM; in assay [3], 7.52 µM; in assay [4], 16.9 µM; in [5] it was 12.1 µM; in assay [24], 43.5 µM. Besides, the outcome in [9], in assay [11], in assay [19] and in assay [21] was Active.

Take `C=C(C)[C@@H]1CC[C@]2(C(=O)O)CC[C@]3(C)[C@H](CC[C@@H]4[C@@]5(C)CC/C(=N\Nc6ccc([N+](=O)[O-])cc6[N+](=O)[O-])C(C)(C)[C@@H]5CC[C@]43C)[C@@H]12`: the IC50 in assay [1] was determined as 6.22 µM; in assay [2], 13.5 µM; in [3], 8.17 µM; in assay [4], 25.9 µM; in assay [5] it was 21.4 µM; in [24] it was 18.1 µM. Further, the result in assay [9], in [11], in assay [19] and in assay [21] was Active. Besides, the “Ratio IC50” value in assay [25], in assay [26] and in assay [27] was 1 in each case.

For the origin of these results see ChEMBL document CHEMBL2424566, “Preparation of betulinic acid derivatives by chemical and biotransformation methods and determination of cytotoxicity against selected cancer cell lines” (Eur J Med Chem, 2013).
